Results reported in patent publication US8569343B2, “Oligomer-opioid agonist conjugates” (Nektar Therapeutics, priority 2007, dated 2013).

What follows are compounds tested against T1, cloned human kappa opioid receptor (Homo sapiens, UniProt P41145) (assay: cell-based). Details: not given.
T1 construct: expressed in transfected cells; host or cells: CHO cells
T1 sequence (P41145 whole entry): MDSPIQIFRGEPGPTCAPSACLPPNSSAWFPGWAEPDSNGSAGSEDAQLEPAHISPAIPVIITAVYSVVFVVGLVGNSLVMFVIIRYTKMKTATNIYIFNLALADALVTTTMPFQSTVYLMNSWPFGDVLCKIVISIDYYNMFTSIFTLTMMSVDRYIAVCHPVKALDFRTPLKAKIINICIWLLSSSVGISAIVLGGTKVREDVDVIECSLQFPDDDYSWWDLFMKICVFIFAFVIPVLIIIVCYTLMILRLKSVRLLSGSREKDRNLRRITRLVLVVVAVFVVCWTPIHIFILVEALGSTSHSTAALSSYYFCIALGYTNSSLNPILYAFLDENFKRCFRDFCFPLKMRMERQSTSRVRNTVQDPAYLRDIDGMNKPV
Protocol: The efficacy of the various PEG-opioid conjugates was measured by their ability to inhibit cAMP formation following receptor activation. Studies were conducted in CHO cells heterologously expressing the cloned human mu, kappa or delta opioid receptors. cAMP was measured using a cAMP HiRange homogenous time-resolved fluorescence assay (HTRF Assay), that is based on a competitive immunoassay principle (Cisbio, Cat. #62AM6PEC).
Briefly, suspensions of cells expressing either the mu, kappa or delta opioid receptors were prepared in buffer containing 0.5 mM isobutyl-methyl xanthine (IBMX). […] EC50 values were calculated for each compound from a sigmoidal dose-response plot of concentrations versus maximum response. To determine if the compounds behaved as full or partial agonists in the system, the maximal response at the highest tested concentrations of compounds were compared to that produced by a known full agonist.
In the case of `COc1ccc2c3c1O[C@H]1C(O)CC[C@@]4(O)[C@@H](C2)N(C)CC[C@]314` (stereo partly drawn) [Hydroxycodone, α-6-hydroxycodone, reference compound], the EC50 is reported as greater than 500 µM. `COCCOCCOCCOCCO[C@H]1CC[C@@]2(O)[C@H]3Cc4ccc(OC)c5c4[C@@]2(CCN3C)[C@H]1O5` [α-6-mPEG4-O-Hydroxycodone, α-6-mPEG4-O-hydroxycodone] showed an EC50 greater than 500 µM. Work on α-6-mPEG1-O-codeine yielded an EC50 greater than 500 µM. In the case of α-6-mPEG4-O-codeine, the EC50 is reported as greater than 500 µM. α-6-mPEG5-O-codeine showed an EC50 greater than 500 µM. For α-6-mPEG6-O-codeine, the EC50 was greater than 500 µM.

Same assay, conditions: inhibition of cAMP formation; 3 μM forskolin; tested upto 500 μM
With `COCCO[C@H]1CC[C@@]2(O)[C@H]3Cc4ccc(OC)c5c4[C@@]2(CCN3C)[C@H]1O5` [α-6-mPEG1-O-Hydroxycodone, α-6-mPEG1-O-hydroxycodone] the EC50 was greater than 500 µM. `COCCOCCO[C@H]1CC[C@@]2(O)[C@H]3Cc4ccc(OC)c5c4[C@@]2(CCN3C)[C@H]1O5` [α-6-mPEG2-O-Hydroxycodone, α-6-mPEG2-O-hydroxycodone] gave an EC50 greater than 500 µM. `COCCOCCOCCO[C@H]1CC[C@@]2(O)[C@H]3Cc4ccc(OC)c5c4[C@@]2(CCN3C)[C@H]1O5` [α-6-mPEG3-O-Hydroxycodone, α-6-mPEG3-O-hydroxycodone] showed an EC50 greater than 500 µM. `COCCOCCOCCOCCOCCO[C@H]1CC[C@@]2(O)[C@H]3Cc4ccc(OC)c5c4[C@@]2(CCN3C)[C@H]1O5` [α-6-mPEG5-O-Hydroxycodone, α-6-mPEG5-O-hydroxycodone] was tested, and the EC50 was greater than 500 µM. Work on `COCCOCCOCCOCCOCCOCCO[C@H]1CC[C@@]2(O)[C@H]3Cc4ccc(OC)c5c4[C@@]2(CCN3C)[C@H]1O5` [α-6-mPEG6-O-Hydroxycodone, α-6-mPEG6-O-hydroxycodone] yielded an EC50 greater than 500 µM. `COCCOCCOCCOCCOCCOCCOCCO[C@H]1CC[C@@]2(O)[C@H]3Cc4ccc(OC)c5c4[C@@]2(CCN3C)[C@H]1O5` [α-6-mPEG7-O-Hydroxycodone, α-6-mPEG7-O-hydroxycodone] gave an EC50 greater than 500 µM. Work on `COCCOCCOCCOCCOCCOCCOCCOCCOCCO[C@H]1CC[C@@]2(O)[C@H]3Cc4ccc(OC)c5c4[C@@]2(CCN3C)[C@H]1O5` [α-6-mPEG9-O-Hydroxycodone, α-6-mPEG9-O-hydroxycodone] yielded an EC50 greater than 500 µM.

These compounds were tested against recombinant human delta opioid receptor (Homo sapiens, UniProt P41143) (assay: not given). Details: GTP-γS binding, screened up to 10 μM in agonist and antagonist mode.
Sequence of recombinant human delta opioid receptor (P41143 whole entry): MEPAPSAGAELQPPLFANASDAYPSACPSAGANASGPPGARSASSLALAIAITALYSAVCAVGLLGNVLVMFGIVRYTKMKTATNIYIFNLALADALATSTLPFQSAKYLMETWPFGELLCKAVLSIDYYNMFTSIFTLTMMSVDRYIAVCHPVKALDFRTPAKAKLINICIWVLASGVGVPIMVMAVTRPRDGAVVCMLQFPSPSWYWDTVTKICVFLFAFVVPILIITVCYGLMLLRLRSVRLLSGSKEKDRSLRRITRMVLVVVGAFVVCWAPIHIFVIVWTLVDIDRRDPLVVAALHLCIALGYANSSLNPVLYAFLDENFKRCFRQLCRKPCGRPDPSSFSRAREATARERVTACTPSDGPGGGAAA
For `COCCOCCOCCO[C@H]1CC[C@@]2(O)[C@H]3Cc4ccc(O)c5c4[C@@]2(CCN3CC2CCC2)C1O5` (some centres unmarked) [6-O-mPEG3-Nalbuphine, 6-O-mPEG3-nalbuphine], the “effect at the delta opioid receptor” value was “no effect”.
